Values joined by “and” are separate entries in the source; they are usually repeats but may differ in a detail not shown here. Identical values can stand only once. Like-named read-outs stand apart in the source and are kept apart here.
Key:
[1] = target: T1, dephosphorylated IRE1α (547–977) (Homo sapiens, UniProt O75460); experiment: FRET-based IRE1α RNase activity assay, dephosphorylated IRE1α; assay type: biochemical
T1 construct: Human IRE1α kinase and RNase domain (residues 547–977) was subcloned into pLIB plasmid; His tag (with TEV cleavage site) (N, cleaved yes); made in house; host or cells: Sf9 insect cells, baculovirus (Bac-to-Bac)
T1 sequence (O75460 547-977): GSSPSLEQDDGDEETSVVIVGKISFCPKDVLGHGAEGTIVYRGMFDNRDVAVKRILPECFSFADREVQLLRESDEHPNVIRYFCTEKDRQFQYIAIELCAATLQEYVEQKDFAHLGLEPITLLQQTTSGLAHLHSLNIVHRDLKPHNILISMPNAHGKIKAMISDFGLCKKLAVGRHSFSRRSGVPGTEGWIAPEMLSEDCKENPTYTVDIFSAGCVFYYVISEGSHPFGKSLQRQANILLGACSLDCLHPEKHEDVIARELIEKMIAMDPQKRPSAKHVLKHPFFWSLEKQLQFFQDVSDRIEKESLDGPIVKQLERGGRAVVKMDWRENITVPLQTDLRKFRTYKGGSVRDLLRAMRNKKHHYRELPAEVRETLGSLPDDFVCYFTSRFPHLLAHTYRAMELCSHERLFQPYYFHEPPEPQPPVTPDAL
Experimental: (§1) Human IRE1α kinase and RNase domain (residues 547–977) was subcloned into pLIB plasmid with a His tag and TEV cleavage site, and expressed using Bac-to-Bac expression system. The primers used are listed in Supplementary Table S3. The protein purification was performed following established procedures. Briefly, Sf9 cells were infected with baculovirus and incubated at 27 °C 110 rpm for 72 h. The cells were collected by centrifugation at 4000 × g for 15 min and the cell pellet was resuspended in lysis buffer (50 mM HEPES pH 7.5, 300 mM NaCl, 10% glycerol, 1 mM MgCl2, 1 mM TCEP, 5 mM imidazole), then supplemented with 1:10,000 benzonase (Sigma, E1014), 1 tablet/25 mL […]™ Protease Inhibitor Cocktail tablets (Sigma, S8830) and 1 mM PMSF before lysed by sonication at 4 °C. […] The protein elution was incubated with TEV protease to remove His tag at 4 °C overnight. Then the sample was diluted 1:6 in buffer (50 mM HEPES pH 7.5, 1 mM TCEP, 5% glycerol) and loaded onto a 5 mL pre-packaged Q HP anion exchange column (Cytiva, HiTrap Q HP) pre-equilibrated with QA buffer (50 mM HEPES pH 7.5, 50 mM NaCl, 1 mM TCEP, 5% glycerol). The unphosphorylated and phosphorylated protein was separated by eluting the protein with a very shallow gradient with 0-30% buffer QB (50 mM HEPES pH 7.5, 1 M NaCl, 1 mM TCEP, 5% glycerol) over 80 CV. Different peaks were collected separately and verified by LC-MS. The fully phosphorylated fraction was collected and further purified by size exclusion chromatography (Cytiva, HiLoad 16/600 Superdex 200 pg,) with SEC buffer (25 mM HEPES pH 7.5, 250 mM NaCl, 1 mM TCEP, 10% glycerol) and fractioned as monomeric peak. The rest protein fraction from the Q HP anion exchange column was incubated with Lambda protein phosphatase (New England BioLabs, P0753S) overnight at 4 °C, the dephosphorylation was confirmed by LC-MS. The unphosphorylated protein was further purified by size exclusion chromatography with the SEC buffer described above. The purified phosphorylated (p-IRE1α) and dephosphorylated (IRE1α) protein aliquots were stored at −80 °C for future usage.
The dual-labeled RNA substrate with a FAM at 5’ and the BHQ-1 at 3’ containing the XBP1 sequence (5′FAM-[…]-3′BHQ1) was purchased from Integrated DNA Technologies (IDT). The FRET-based IRE1α RNase activity assay was carried out in reaction buffer containing 20 mM HEPES pH 7.5, 50 mM KOAc, 1 mM MgOAc2, 1 mM DTT, 0.05% v/v TritonX-100, at a total reaction volume of 20 μL in a 384-well black plate (4514, Corning). For unphosphorylated IRE1α (IRE1α), a final concentration of 40 nM IRE1α protein and 100 nM RNA substrate was used. For phosphorylated IRE1 (p-IRE1α), a final concentration of 4 nM p-IRE1α protein and 200 nM RNA substrate was used. The indicated compound and IRE1α protein were incubated for 30 min at room temperature before the substrate was added to the reaction. The plate was then kinetically read over one hour at room temperature using a TECAN Spark plate reader. The measurement was carried out using the fluorescence top reading mode at the excitation wavelength of 485 nm and the emission wavelength of 535 nm with a 10 nm excitation and emission bandwidth. The linear part of the reaction curve was adopted and fitted with sample linear regression to obtain the slope, and the slope was adopted to reflect the reaction rate. The inhibition % was calculated by using the equation: inhibition% = 100 × (slope of DMSO control – slope of the sample)/(slope of DMSO control – slope of blank control), DMSO control: DMSO with protein and RNA substrate; Blank control: DMSO with RNA substrate. The IC50 values were calculated using the concentration-response model in GraphPad Prism 9. […]

[2] = target: T2, phosphorylated IRE1α (p-IRE1α) (Homo sapiens, UniProt O75460); experiment: FRET-based IRE1α RNase activity assay, phosphorylated IRE1α; assay type: biochemical
T2 construct: Human IRE1α kinase and RNase domain (residues 547–977) was subcloned into pLIB plasmid; His tag (with TEV cleavage site) (N, cleaved yes); made in house; host or cells: Sf9 insect cells, baculovirus (Bac-to-Bac)
T2 sequence (O75460 547-977): as above
Experimental: as §1
The dual-labeled RNA substrate with a FAM at 5’ and the BHQ-1 at 3’ containing the XBP1 sequence (5′FAM-[…]-3′BHQ1) was purchased from Integrated DNA Technologies (IDT). The FRET-based IRE1α RNase activity assay was carried out in reaction buffer containing 20 mM HEPES pH 7.5, 50 mM KOAc, 1 mM MgOAc2, 1 mM DTT, 0.05% v/v TritonX-100, at a total reaction volume of 20 μL in a 384-well black plate (4514, Corning). For unphosphorylated IRE1α (IRE1α), a final concentration of 40 nM IRE1α protein and 100 nM RNA substrate was used. For phosphorylated IRE1 (p-IRE1α), a final concentration of 4 nM p-IRE1α protein and 200 nM RNA substrate was used. The indicated compound and IRE1α protein were incubated for 30 min at room temperature before the substrate was added to the reaction. The plate was then kinetically read over one hour at room temperature using a TECAN Spark plate reader. The measurement was carried out using the fluorescence top reading mode at the excitation wavelength of 485 nm and the emission wavelength of 535 nm with a 10 nm excitation and emission bandwidth. The linear part of the reaction curve was adopted and fitted with sample linear regression to obtain the slope, and the slope was adopted to reflect the reaction rate. The inhibition % was calculated by using the equation: inhibition% = 100 × (slope of DMSO control – slope of the sample)/(slope of DMSO control – slope of blank control), DMSO control: DMSO with protein and RNA substrate; Blank control: DMSO with RNA substrate. The IC50 values were calculated using the concentration-response model in GraphPad Prism 9.

[3] = FRET assay, RNase activity, mean (± SEM), read-out: IRE1α IC50
[4] = FRET assay, source data, unit from Fig. 3 / sheet Fig. 2b, read-out: IRE1a IC50, individual replicates (n1-n4)
[5] = FRET assay, RNase activity, mean (± SEM), read-out: p-IRE1α IC50
[6] = FRET assay, source data, unit from Fig. 3, read-out: p-IRE1a IC50, individual replicates (n1-n4)
[7] = IRE1a, individual replicates (n1-n4), Supplementary Fig. 2b, 2c, read-out: IC50
[8] = IRE1a, mean, Supplementary Fig. 2b, 2c, read-out: IC50, mean
[9] = p-IRE1a, individual replicates (n1-n3), Supplementary Fig. 2b, 2c, read-out: IC50
[10] = p-IRE1a, mean, Supplementary Fig. 2b, 2c, read-out: IC50, mean

Structure (SMILES)	IC50 [1, 3]	IC50 [1, 4]	IC50 [2, 5]	IC50 [2, 6]	IC50 [1, 7]	IC50 [1, 8]	IC50 [2, 9]	IC50 [2, 10]	other results
Cc1ccc2c(NS(=O)(=O)c3ccccc3Cl)cccc2c1Oc1ncccc1-c1ccnc(N[C@H]2CCCNC2)n1 [AMG18]	–	–	–	–	–	–	–	–	inhibition(%) ([1]; IRE1a, 5.55556 μM): 93.95% and 92.37% and 91.58% and 94.22%; inhibition(%) ([1]; IRE1a, 16.6667 μM): 92.87% and 92.05% and 91.66% and 92.11%; inhibition(%) ([1]; IRE1a, 50 μM): 89.29% and 89.80% and 92.49% and 93.01%; inhibition(%) ([2]; p-IRE1a, 5.55556 μM): 100.91% and 100.40% and 100.53% and 99.85%; inhibition(%) ([2]; p-IRE1a, 16.6667 μM): 99.21% and 99.54% and 99.79% and 99.45%; inhibition(%) ([2]; p-IRE1a, 50 μM): 99.53% and 98.55% and 99.75% and 99.47%
COc1ccc2c(c1)c(CCC(=O)O)c(C)n2C(=O)c1ccccn1 [IA04]	530 nM	337 nM and 1040 nM and 203 nM	820 nM	1590 nM and 458 nM and 394 nM	–	–	–	–	–
COc1ccc2c(c1)c(CCC(=O)O)c(C)n2C(=O)c1ccc2c(c1)C(=O)c1ccccc1C2=O [IA32]	760 nM	589 nM and 971 nM and 1100 nM and 378 nM	610 nM	1080 nM and 593 nM and 159 nM	–	–	–	–	–
COc1ccc2c(c1)c(CCC(=O)O)c(C)n2C(=O)c1cccc(C(F)(F)F)c1 [IA36]	100 nM	39.8 nM and 135 nM and 138 nM	60 nM and 56.1 nM	105 nM and 45 nM and 18 nM	–	–	–	–	–
Cc1c(CCC(=O)O)c2ccccc2n1C(=O)c1cccc(C#N)c1 [IA41]	–	–	–	–	2320 nM and 4340 nM and 2120 nM	2930 nM	4900 nM and 768 nM	2840 nM	–
Cc1c(CCC(=O)O)c2ccccc2n1C(=O)c1cccs1 [IA42]	–	–	–	–	1960 nM and 3270 nM and 1050 nM	2090 nM	4450 nM and 1100 nM	2770 nM	–
Cc1c(CCC(=O)O)c2cc(Br)ccc2n1C(=O)c1cccs1 [IA44]	–	–	–	–	90 nM and 91.2 nM and 59.1 nM	80 nM	168 nM and 34.5 nM	100 nM	–
COc1ccc2c(c1)c(CCC(=O)O)c(C)n2C(=O)c1ccc(F)cc1 [IA66]	140 nM	213 nM and 125 nM and 82.7 nM	200 nM	124 nM and 115 nM and 353 nM	–	–	–	–	–

More lines, main results first:

IC50 [1, 3]	IC50 [1, 4]	IC50 [2, 5]	IC50 [2, 6]	IC50 [1, 7]	IC50 [1, 8]	IC50 [2, 9]	IC50 [2, 10]	Structure (SMILES)	other results
1460 nM	869 nM and 1330 nM and 2170 nM	1960 nM	2090 nM and 2100 nM and 1670 nM	–	–	–	–	COc1ccc2c(c1)c(CCC(=O)O)c(C)n2C(=O)c1ccc(Br)cc1 [IA02]	–
–	–	–	–	4700 nM and 983 nM and 3620 nM and 1970 nM	2820 nM	5260 nM and 7800 nM and 3640 nM	5570 nM	Cc1c(CCC(=O)O)c2cc(F)ccc2n1C(=O)c1cccc(C#N)c1 [IA47]	–
–	–	–	–	542 nM and 383 nM and 121 nM	350 nM	1070 nM and 419 nM and 737 nM	740 nM	Cc1c(CCC(=O)O)c2cc(F)ccc2n1C(=O)c1cccs1 [IA48]	–
–	–	–	–	117 nM and 90.9 nM and 105 nM	100 nM	244 nM and 461 nM and 90.7 nM	270 nM	Cc1c(CCC(=O)O)c2cc(Cl)ccc2n1C(=O)c1cccs1 [IA60]	–
–	–	–	–	101 nM and 84.1 nM and 98.1 nM	90 nM	204 nM and 404 nM and 78.9 nM	230 nM	Cc1c(CCC(=O)O)c2cc(Cl)ccc2n1C(=O)c1cccc(C#N)c1 [IA63]	–
320 nM	473 nM and 234 nM and 244 nM	730 nM	505 nM and 1390 nM and 290 nM	–	–	–	–	COc1ccc2c(c1)c(CCC(=O)O)c(C)n2C(=O)c1ccc(N(C)C)cc1 [IA70]	–

From paper PMC12475274, “Harnessing indole scaffolds to identify small-molecule IRE1α inhibitors modulating XBP1 mRNA splicing” (Nature Communications, 2025)
